Assay results reported in patent US20260061016A1, “Extrait aqueux des parties aériennes d'une plante du genre Aster et ses utilisations” (TAUDERMA, priority 2022, published 2026).
≈ marks a conversion by molar mass, not a printed value.

Tested on: S. aureus registered under number DSM799
Experiment: Minimum inhibitory concentration (MIC), solution culture in 96-well plates followed by drop culture on TSB agar
Type: cell-based, Staphylococcus aureus
Method: The aim of the test is to compare the efficacy of an extract according to Example 1 or Example 2 and an extract of the Aster genus obtained from the root system (Without the Invention). The aim of the test is to identify the minimum inhibitory concentration (MIC) on a strain of S. aureus registered under number DSM799. The minimum inhibitory concentration (MIC) was determined in vitro using S. aureus solution culture in 96-well plates. The initial concentration of S. aureus was 1.25*10^5 CFU/ml. After 48 h incubation in the presence of a series of dilutions of the extract, a 20 μl drop was taken and placed on a TSB agar plate. The diameter of the “drop culture” is about 1.5 cm. Agar plate cultures were then incubated at 37° C. for 14 hours. The positive control corresponds to the maximum growth of a bacterium, that is, when it is fully confluent, meaning that bacterial colonies stick together and none are visible. Different extracts according to the invention and not according to the invention at different concentrations are thus compared. When no colonies, or separate individual colonies, are visible, then the bacteria have been inhibited by the extract. The extract concentration is then defined as MIC. […] The definition of MIC is as follows: Arbitrary units of bacterial growth were determined on agar culture plates (drop method). […]

O=C(N[C@H](CO)[C@H](O)c1ccc([N+](=O)[O-])cc1)C(Cl)Cl [Chloramphenicol]
MIC (Staphylococcus aureus, 48 h incubation with extract dilutions, drop on TSB agar, 14 h at 37° C.): 50 µg/mL (≈ 155 µM)
Number of colonies (agar drop culture at the MIC): 0
